Test results reported in patent publication US8071778B2, “Substituted heterocyclic ethers and their use in CNS disorders” (Bristol-Myers Squibb Company, priority 2006, dated 2011).
Read-outs that look alike come from different tables or passages of the source.

Experiments:
NK-1 = biological target: T1, NK-1 (Homo sapiens, UniProt P25103); experiment: NK1 radioligand binding assay; conditions: U373 membrane preparation, [125I]Substance P
T1 construct: endogenous in cells; host or cells: U373 cells (crude membranes)
T1 sequence (P25103 whole entry): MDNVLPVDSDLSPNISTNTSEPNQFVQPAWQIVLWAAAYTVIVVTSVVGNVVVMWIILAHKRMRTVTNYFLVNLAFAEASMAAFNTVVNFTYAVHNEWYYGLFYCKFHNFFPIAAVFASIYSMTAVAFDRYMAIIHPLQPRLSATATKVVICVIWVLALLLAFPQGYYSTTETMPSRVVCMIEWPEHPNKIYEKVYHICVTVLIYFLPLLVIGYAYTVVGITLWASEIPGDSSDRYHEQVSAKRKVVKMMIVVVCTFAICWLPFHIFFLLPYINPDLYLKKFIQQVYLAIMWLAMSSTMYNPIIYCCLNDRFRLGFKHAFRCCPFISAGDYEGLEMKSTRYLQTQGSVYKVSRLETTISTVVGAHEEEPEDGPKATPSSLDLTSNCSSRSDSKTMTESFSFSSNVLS
Description: (§1) NK-1 Binding assay. Crude membrane suspensions were prepared for the NK1 and SERT radioligand binding assays from U373 cells or recombinant HEK-293 cells expressing hSERT, respectively. […] The medium is removed from the flasks and the cells rinsed with HBSS without Ca and without Mg. The cells are then incubated for 5-10 minutes in 10 mM Tris-Cl, pH 7.5, 5 mM EDTA before the cells are lifted with a combination of pipetting and scraping, as needed. To prepare membranes, the cell suspension is collected into centrifuge bottles and homogenized for 30 seconds with a Polytron homogenizer. The suspension is centrifuged for 30 min 32,000×g, 4° C., then the supernatant is decanted and the pellet resuspended and homogenized in 50 mM Tris-Cl, pH 7.5, 1 mM EDTA for 10 seconds. The suspension is then centrifuged again for 30 min 32,000×g, 4° C. The supernatant is decanted and the pellet resuspended in 50 mM Tris-Cl, pH 7.5, 1 mM EDTA and briefly homogenized. A Bradford assay (Bio-rad) is performed and the membrane preparation diluted to 2 mg/ml with 50 mM Tris-Cl, pH 7.5, 1 mM EDTA. Aliquots are prepared, and then frozen and stored at −80° C.
(§2) NK1 radioligand binding assay. Compounds are dissolved in 100% DMSO at a concentration 100× the desired highest assay concentration, serially diluted 1:3 in 100% DMSO, and 0.6 ul/well of each solution is dispensed to a Nunc polypropylene, round bottom, 384 well plate. […] The contents of the assay plate are then transferred to a Millipore MultiscreenHTS GF/B filter plate which has been pretreated with 0.5% PEI for at least one hour. The plate is vacuum filtered and washed with 7 washes of 100 ul/well of 20 mM Tris-Cl, pH 7.5, 0.5% (w/v) BSA chilled to 4° C. The filtration and washing is completed in less than 90 s. The plates are air-dried overnight, 12 ul/well of MicroScint scintillation fluid added, and the plates counted in a Trilux.
(§3) Data analysis. […] Each plate is run in triplicate, and the concentration response curve thus generated is fit using the four-parameter dose response equation, Y=Bottom+(Top-Bottom)/(1+10^((Log IC50−X)*HillSlope)) in order to determine the IC50 value for each compound. The radioligand concentration chosen for each assay corresponds to the Kd concentration determined through saturation binding analysis for each assay.

hSERT = biological target: T2, hSERT (Homo sapiens, UniProt P31645); experiment: SERT radioligand binding assay
T2 construct: expressed in transfected cells; host or cells: HEK-293 cells (crude membranes)
T2 sequence (P31645 whole entry): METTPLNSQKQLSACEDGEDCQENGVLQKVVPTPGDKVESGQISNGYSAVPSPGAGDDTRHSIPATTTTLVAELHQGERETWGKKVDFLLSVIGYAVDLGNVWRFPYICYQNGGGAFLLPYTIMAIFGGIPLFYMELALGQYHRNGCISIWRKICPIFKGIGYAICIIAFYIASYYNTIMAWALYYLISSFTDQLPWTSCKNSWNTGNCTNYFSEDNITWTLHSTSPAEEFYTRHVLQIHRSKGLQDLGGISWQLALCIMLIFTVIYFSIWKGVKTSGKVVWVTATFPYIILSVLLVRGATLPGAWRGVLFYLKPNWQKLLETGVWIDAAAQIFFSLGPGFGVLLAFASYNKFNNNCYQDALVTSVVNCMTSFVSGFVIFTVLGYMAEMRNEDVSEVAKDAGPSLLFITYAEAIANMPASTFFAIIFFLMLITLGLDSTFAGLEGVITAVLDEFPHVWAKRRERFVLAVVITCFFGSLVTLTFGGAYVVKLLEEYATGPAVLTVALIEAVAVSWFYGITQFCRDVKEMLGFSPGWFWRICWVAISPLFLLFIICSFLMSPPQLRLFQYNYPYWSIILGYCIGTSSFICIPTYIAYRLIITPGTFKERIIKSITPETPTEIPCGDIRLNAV
Description: as §1
as §2, with “SERT” for “NK1”, “0.4” for “0.6”, “50” for “20”, “120 mM NaCl, 5 mM KCl” for “0.5% (w/v) BSA”
as §3

[1] = HEK-hSERT membrane preparation, [125I]RTI-55, read-out: SERT IC50

Row | SMILES | IC50 (NK-1) [nM] | IC50 (hSERT; [1]) [nM] | IC50 (hSERT) [nM]
1 | COc1ccc(-c2cc(C(F)(F)F)cc(COCC3(c4ccccc4)CCNCC3)n2)cc1 [Example 1, 2-(4-methoxyphenyl)-6-(((4-phenylpiperidin-4-yl)methoxy)methyl)-4-(trifluoromethyl)pyridine] | 0.01 to 100 | 0.01 to 100 | 
2 | FC(F)(F)c1cc(COCC2(c3ccccc3)CCNCC2)nc(-c2ccncc2)c1 [Example 2] | 0.01 to 100 | 0.01 to 100 | 
3 | FC(F)(F)c1ccc(-c2cc(C(F)(F)F)cc(COCC3(c4ccccc4)CCNCC3)n2)cc1 [Example 3] | > 300 | 100 to 300 | 
4 | Cc1ccc(-c2cc(C(F)(F)F)cc(COCC3(c4ccccc4)CCNCC3)n2)cc1 [Example 4] | 0.01 to 100 | 0.01 to 100 | 
5 | Fc1ccc(-c2cc(C(F)(F)F)cc(COCC3(c4ccccc4)CCNCC3)n2)cc1 [Example 5] | 0.01 to 100 | 0.01 to 100 | 
6 | N#Cc1ccc(-c2cc(C(F)(F)F)cc(COCC3(c4ccccc4)CCNCC3)n2)cc1 [Example 6] | 0.01 to 100 | 0.01 to 100 | 
7 | N#Cc1ccc(-c2cc(C(F)(F)F)cc(COCC3(c4ccc(F)cc4)CCNCC3)n2)cc1 [Example 7] | 0.01 to 100 | 0.01 to 100 | 
8 | CC(OCC1(c2ccccc2)CCNCC1)c1cc(C(F)(F)F)cc(-c2ccc(C#N)cc2)n1 (stereo not shown) [Example 8] | 0.01 to 100 | 0.01 to 100 | 
9 | c1ccc(C2(COCc3cncc(-c4ccco4)c3)CCNCC2)cc1 [Example 9] | > 300 | 0.01 to 100 | 
10 | Clc1ccc(-c2ccc(COCC3(c4ccccc4)CCNCC3)cn2)cc1 [Example 10] | > 300 | 0.01 to 100 | 
11 | Cc1cc(-c2cc(C(F)(F)F)cc(COCC3(c4ccc(F)cc4)CCNCC3)n2)ccc1C#N [Example 11] | 0.01 to 100 | 0.01 to 100 | 
12 | Fc1ccc(C2(COCc3cc(C(F)(F)F)cc(-c4ccc(F)cc4F)n3)CCNCC2)cc1 [Example 12] | 0.01 to 100 | 0.01 to 100 | 
13 | FC(F)(F)c1cc(COCC2(c3ccccc3)CCNCC2)nc(N2CCOCC2)c1 [Example 15] | 0.01 to 100 | 100 to 300 | 
14 | N#CC1CCN(c2cc(C(F)(F)F)cc(COCC3(c4ccc(F)cc4)CCNCC3)n2)CC1 [Example 17] | 0.01 to 100 | 0.01 to 100 | 
15 | N#CC1CCN(c2cc(C(F)(F)F)cc(COCC3(c4ccc(F)cc4)CCNCC3)n2)C1 (stereo not shown) [Example 18] | 0.01 to 100 | 0.01 to 100 | 
16 | Fc1ccc(C2(COCc3cc(C(F)(F)F)cc(N4CC=CC4)n3)CCNCC2)cc1 [Example 19] | 0.01 to 100 | 0.01 to 100 | 
17 | Fc1ccc(C2(COCc3cc(C(F)(F)F)cc(N4CCCC4)n3)CCNCC2)cc1 [Example 20] | 0.01 to 100 | 0.01 to 100 | 
18 | CCC(CC)Nc1cc(C(F)(F)F)cc(COCC2(c3ccc(F)cc3)CCNCC2)n1 [Example 21] | 0.01 to 100 | 0.01 to 100 | 
19 | CCN(CC)c1cc(C(F)(F)F)cc(COCC2(c3ccc(F)cc3)CCNCC2)n1 [Example 22] | 0.01 to 100 | 0.01 to 100 | 
20 | CC(OCC1(c2ccccc2)CCNCC1)c1cc(C(F)(F)F)cc(N2CCOCC2)n1 (stereo not shown) [Example 23] | 0.01 to 100 | 0.01 to 100 | 
21 | N#Cc1ccc(-c2cncc(COCC3(c4ccccc4)CCNCC3)c2)cc1 [Example 25, 4-(5-(((4-phenylpiperidin-4-yl)methoxy)methyl)pyridine-3yl)benzonitrile] | > 300 | 0.01 to 100 | 
22 | CC(OCC1(c2ccccc2)CCNCC1)c1cc(C(F)(F)F)cc(C(F)(F)F)n1 (stereo not shown) [Example 27, 2-(1-((4-phenylpiperidin-4-yl)methoxy)ethyl)-4,6-bis(trifluoromethyl)pyridine] | 0.01 to 100 | 0.01 to 100 | 

Row | SMILES | IC50 (NK-1) [nM] | IC50 (hSERT; [1]) [nM] | IC50 (hSERT) [nM]
23 | COc1cc(OC)nc(COCC2(c3ccccc3)CCNCC2)n1 [Example 30, 4,6-dimethoxy-2(((4-phenylpiperidin-4-yl)methoxy)methyl)pyrimidine] | > 300 | 100 to 300 | 
24 | N#Cc1cc(C(F)(F)F)cc(COCC2(c3ccccc3)CCNCC2)n1 [Example 31] | > 300 | 0.01 to 100 | 
25 | CC(OCC1(c2ccccc2)CCNCC1)c1cc(C(F)(F)F)cc(C#N)n1 (stereo not shown) [Example 32] | 0.01 to 100 | 0.01 to 100 | 
26 | CC(OCC1(c2ccc(F)cc2)CCN(C)CC1)c1cc(C(F)(F)F)cc(Br)n1 (stereo not shown) [Example 33, 2-bromo-6-(1-((4-(4-fluorophenyl)-1-methylpiperidin-4-yl)methoxy)ethyl)-4-(trifluoromethyl)p] | 0.01 to 100 |  | 0.01 to 100
27 | CC(OCC1(c2ccccc2)CCN(C)CC1)c1cc(C(F)(F)F)cc(-c2ccc(F)cc2)n1 (stereo not shown) [Example 34, 2-(4-fluorophenyl)-6-(1-((1-methyl-4-phenylpiperidin-4-yl)methoxy)ethyl)-4-(trifluoromethyl)pyridine] | 0.01 to 100 | 0.01 to 100 | 
28 | CN1CCC(COCc2cc(C(F)(F)F)cc(Cl)n2)(c2cccnc2)CC1 [Example 35, 2-chloro-6-(((1-methyl-4-(pyridin-3-yl)piperidin-4-yl)methoxy)methyl)-4-(trifluoromethyl)pyridine] | > 300 |  | 0.01 to 100
29 | Cc1cc(C(F)(F)F)cc(COCC2(c3ccc(F)cc3)CCN(C)CC2)n1 [Example 36, 2-(((4-(4-fluorophenyl)-1-methylpiperidin-4-yl)methoxy)methyl)-6-methyl-4-(trifluoromethyl)pyridine] | 0.01 to 100 |  | 0.01 to 100
30 | CN1CCC(COCc2cc(C(F)(F)F)cc(-c3ncon3)n2)(c2ccc(F)cc2)CC1 [Example 37, 3-(6-(((4-(4-fluorophenyl)-1-methylpiperidin-4-yl)methoxy)methyl)-4-(trifluoromethyl)pyridin-2-yl)-1,2,4-oxadiazole] | 100 to 300 |  | 0.01 to 100
31 | COc1ccc(-c2cc(C(F)(F)F)cc(COCC3(c4ccccc4)CCN(C)CC3)n2)cc1 [Example 38, 2-(4-methoxyphenyl)-6-(((1-methyl-4-phenylpiperidin-4-yl)methoxy)methyl)-4-(trifluoromethyl)pyridine] | 0.01 to 100 |  | 0.01 to 100
32 | CN1CCC(COCc2cc(C(F)(F)F)cc(-c3ccncc3)n2)(c2ccccc2)CC1 [Example 39] | 0.01 to 100 |  | 0.01 to 100
33 | Cc1ccc(-c2cc(C(F)(F)F)cc(COCC3(c4ccccc4)CCN(C)CC3)n2)cc1 [Example 40] | 0.01 to 100 |  | 0.01 to 100
34 | CN1CCC(COCc2cc(C(F)(F)F)cc(-c3ccc(C#N)cc3)n2)(c2ccccc2)CC1 [Example 41] | 0.01 to 100 |  | 0.01 to 100
35 | CN1CCC(COCc2cc(C(F)(F)F)cc(-c3ccc(F)cc3)n2)(c2ccccc2)CC1 [Example 42] | 0.01 to 100 |  | 0.01 to 100
36 | CC(OCC1(c2ccccc2)CCN(C)CC1)c1cc(C(F)(F)F)cc(-c2ccc(C#N)cc2)n1 (stereo not shown) [Example 46] | 0.01 to 100 |  | 0.01 to 100
37 | CN1CCC(COCc2cc(C(F)(F)F)cc(-c3ccc(C#N)cc3)n2)(c2ccc(F)cc2)CC1 [Example 47] | 0.01 to 100 |  | 0.01 to 100
38 | CN1CCC(COCc2cc(N3CCCC3)cc(C(F)(F)F)n2)(c2ccccc2)CC1 [Example 48] | 0.01 to 100 |  | 0.01 to 100
39 | CN1CCC(COCc2cncc(-c3ccco3)c2)(c2ccccc2)CC1 [Example 49] | > 300 |  | 0.01 to 100
40 | CN1CCC(COCc2ccc(-c3ccc(Cl)cc3)nc2)(c2ccccc2)CC1 [Example 50] | > 300 |  | 0.01 to 100
41 | CN1CCC(COCc2cc(C(F)(F)F)cc(-c3ccc(C#N)cc3)n2)(c2ccccc2F)CC1 [Example 54] | 0.01 to 100 |  | 100 to 300
42 | CN1CCC(COCc2cc(C(F)(F)F)cc(N3CCCC3)n2)(c2ccccc2F)CC1 [Example 55] | 0.01 to 100 | 0.01 to 100 | 
43 | CN1CCC(COCc2cc(C(F)(F)F)cc(N3CCCC3)n2)(c2ccc(F)cc2)CC1 [Example 59] | 0.01 to 100 | 0.01 to 100 | 
44 | Cc1cc(-c2cc(C(F)(F)F)cc(COCC3(c4ccccc4)CCN(C)CC3)n2)ccc1C#N [Example 60] | 0.01 to 100 |  | 0.01 to 100
